US11390616B2 (BRISTOL-MYERS SQUIBB COMPANY, priority 2015, dated 2022)

Biological target: T1, human APJ receptor (Homo sapiens, UniProt P35414)
T1 construct: expressed in transfected cells; host or cells: HEK293
T1 sequence (P35414 1-380): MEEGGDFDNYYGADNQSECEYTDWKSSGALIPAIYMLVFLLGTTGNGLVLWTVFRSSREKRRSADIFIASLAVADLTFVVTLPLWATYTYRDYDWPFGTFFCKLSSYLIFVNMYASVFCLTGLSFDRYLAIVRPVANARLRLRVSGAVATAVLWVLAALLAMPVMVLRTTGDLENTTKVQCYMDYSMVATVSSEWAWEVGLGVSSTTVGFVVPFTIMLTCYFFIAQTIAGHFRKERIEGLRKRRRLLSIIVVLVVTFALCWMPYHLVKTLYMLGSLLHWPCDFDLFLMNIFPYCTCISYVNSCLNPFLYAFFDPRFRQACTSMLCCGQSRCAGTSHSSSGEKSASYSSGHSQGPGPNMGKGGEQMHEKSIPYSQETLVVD
Experiment: Intracellular cAMP accumulation assay (APJ hcAMP, HTRF)
Assay type: cell-based
Details: HEK293 cells stably expressing human APJ receptor; inhibition of forskolin-mediated cAMP production; read-out: APJ cAMP Potency range
Procedure, shortened: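 HEK293 cells stably expressing the receptor (5,000/well) treated with compound plus […] and 2 μM forskolin for 30 min at room temperature; cAMP by HTRF against a cAMP standard curve. EC50 from variable-slope sigmoidal fit; Ymax as % of (Pyr1)apelin-13 inhibition.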

EC50, 0.01 to 10 nM:
CCc1cccc(CC)c1-n1c(-c2ccn(CC)n2)nc(=O)c(Cc2ccc(-c3ccncc3C)c(F)c2)c1O [Example 76, 1-(2,6-diethylphenyl)-2-(1-ethyl-1H-pyrazol-3-yl)-5-{[3-fluoro-4-(3-methylpyridin-4-yl)phenyl]methyl}-6-hydroxy-1,4-dihydropyrimidin-4-one]
CCc1cccc(CC)c1-n1c(-c2ccn(CC)n2)nc(=O)c(Cc2ccc(-c3ccnc(F)c3C)c(F)c2)c1O [Example 77, 1-(2,6-diethylphenyl)-2-(1-ethyl-1H-pyrazol-3-yl)-5-{[3-fluoro-4-(2-fluoro-3-methylpyridin-4-yl)phenyl]methyl}-6-hydroxy-1,4-dihydropyrimidin-4-one]
CCc1cccc(CC)c1-n1c(-c2csc(C)n2)nc(=O)c(Cc2ccc(-c3ccnc(F)c3C)c(F)c2)c1O [Example 78, 1-(2,6-diethylphenyl)-5-{[3-fluoro-4-(2-fluoro-3-methylpyridin-4-yl)phenyl]methyl}-6-hydroxy-2-(2-methyl-1,3-thiazol-4-yl)-1,4-dihydropyrimidin-4-one]
CCc1cccc(CC)c1-n1c(-c2nc(C)cs2)nc(=O)c(Cc2ccc(-c3ccc(F)nc3C)c(F)c2)c1O [Example 79, 1-(2,6-diethylphenyl)-5-{[3-fluoro-4-(6-fluoro-2-methylpyridin-3-yl)phenyl]methyl}-6-hydroxy-2-(4-methyl-1,3-thiazol-2-yl)-1,4-dihydropyrimidin-4-one]
CCc1cccc(CC)c1-n1c(-c2ccn(CC)n2)nc(=O)c(Cc2ccc(-c3ccc(F)nc3C)c(F)c2)c1O [Example 80, 1-(2,6-diethylphenyl)-2-(1-ethyl-1H-pyrazol-3-yl)-5-{[3-fluoro-4-(6-fluoro-2-methylpyridin-3-yl)phenyl]methyl}-6-hydroxy-1,4-dihydropyrimidin-4-one]
CCc1cccc(CC)c1-n1c(-c2nc(C)cs2)nc(=O)c(Cc2ccc(-c3ccc(F)cc3C(N)=O)c(F)c2)c1O [Example 82, 4′-{[1-(2,6-diethylphenyl)-6-hydroxy-2-(4-methyl-1,3-thiazol-2-yl)-4-oxo-1,4-dihydropyrimidin-5-yl]methyl}-2′,4-difluoro-[1,1′-biphenyl]-2-carboxamide]
CCc1cccc(CC)c1-n1c(-c2nc(C)cs2)nc(=O)c(Cc2ccc(-c3cccn(C)c3=O)c(F)c2)c1O [Example 83, 1-(2,6-diethylphenyl)-5-{[3-fluoro-4-(1-methyl-2-oxo-1,2-dihydropyridin-3-yl)phenyl]methyl}-6-hydroxy-2-(4-methyl-1,3-thiazol-2-yl)-1,4-dihydropyrimidin-4-one]
CCc1cccc(CC)c1-n1c(-c2ccn(C(C)C)n2)nc(=O)c(Cc2ccc(-c3ccc(F)cc3C(N)=O)c(F)c2)c1O [Example 84, 4′-{[1-(2,6-diethylphenyl)-6-hydroxy-4-oxo-2-[1-(propan-2-yl)-1H-pyrazol-3-yl]-1,4-dihydropyrimidin-5-yl]methyl}-2′,4-difluoro-[1,1′-biphenyl]-2-carboxamide]
CCc1cccc(CC)c1-n1c(-c2ccn(C(C)C)n2)nc(=O)c(Cc2ccc(-c3ccnc(F)c3C)c(F)c2)c1O [Example 85, 1-(2,6-diethylphenyl)-5-{[3-fluoro-4-(2-fluoro-3-methylpyridin-4-yl)phenyl]methyl}-6-hydroxy-2-[1-(propan-2-yl)-1H-pyrazol-3-yl]-1,4-dihydropyrimidin-4-one]
CCc1cccc(CC)c1-n1c(-c2ccn(C)n2)nc(=O)c(Cc2ccc(-c3ccnc(F)c3C)cc2F)c1O [Example 86, 1-(2,6-diethylphenyl)-5-{[2-fluoro-4-(2-fluoro-3-methylpyridin-4-yl)phenyl]methyl}-6-hydroxy-2-(1-methyl-1H-pyrazol-3-yl)-1,4-dihydropyrimidin-4-one]
CCc1cccc(CC)c1-n1c(-c2ccn(C(C)C)n2)nc(=O)c(Cc2ccc(-c3cccn(C)c3=O)c(F)c2)c1O [Example 87, 1-(2,6-diethylphenyl)-5-{[3-fluoro-4-(1-methyl-2-oxo-1,2-dihydropyridin-3-yl)phenyl]methyl}-6-hydroxy-2-[1-(propan-2-yl)-1H-pyrazol-3-yl]-1,4-dihydropyrimidin-4-one]
CCc1cccc(CC)c1-n1c(-c2ccn(C)n2)nc(=O)c(Cc2ccc(-c3cccn(C)c3=O)cc2F)c1O [Example 88, 1-(2,6-diethylphenyl)-5-{[2-fluoro-4-(1-methyl-2-oxo-1,2-dihydropyridin-3-yl)phenyl]methyl}-6-hydroxy-2-(1-methyl-1H-pyrazol-3-yl)-1,4-dihydropyrimidin-4-one]
CCc1cccc(CC)c1-n1c(-c2ccn(C)n2)nc(=O)c(Cc2ccc(-c3ccc(F)cc3C(N)=O)cc2F)c1O [Example 89, 4′-{[1-(2,6-diethylphenyl)-6-hydroxy-2-(1-methyl-1H-pyrazol-3-yl)-4-oxo-1,4-dihydropyrimidin-5-yl]methyl}-3′,4-difluoro-[1,1′-biphenyl]-2-carboxamide]
CCc1cccc(CC)c1-n1c(-c2ccn(C3CC3)n2)nc(=O)c(Cc2ccc(-c3cccn(C)c3=O)c(F)c2)c1O [Example 93, 2-(1-cyclopropyl-1H-pyrazol-3-yl)-1-(2,6-diethylphenyl)-5-{[3-fluoro-4-(1-methyl-2-oxo-1,2-dihydropyridin-3-yl)phenyl]methyl}-6-hydroxy-1,4-dihydropyrimidin-4-one]
CCc1cccc(CC)c1-n1c(-c2ccn(C3CC3)n2)nc(=O)c(Cc2ccc(-c3ccc(F)cc3C(N)=O)c(F)c2)c1O [Example 94, 4′-{[2-(1-cyclopropyl-1H-pyrazol-3-yl)-1-(2,6-diethylphenyl)-6-hydroxy-4-oxo-1,4-dihydropyrimidin-5-yl]methyl}-2′,4-difluoro-[1,1′-biphenyl]-2-carboxamide]
CCCCc1nc(=O)c(Cc2ccc(-c3cccnc3C)cc2)c(O)n1[C@@H](CC)c1cccc(C#N)c1 [Example 96, 3-[(1S)-1-(2-butyl-6-hydroxy-5-{[4-(2-methylpyridin-3-yl)phenyl]methyl}-4-oxo-1,4-dihydropyrimidin-1-yl)propyl]benzonitrile]
CCCCc1nc(=O)c(Cc2ccc(-c3ccc(F)nc3)cc2)c(O)n1[C@@H](CC)c1cccc(C#N)c1 [Example 97, 3-[(1S)-1-(2-butyl-5-{[4-(6-fluoropyridin-3-yl)phenyl]methyl}-6-hydroxy-4-oxo-1,4-dihydropyrimidin-1-yl)propyl]benzonitrile]
CCCCc1nc(=O)c(Cc2ccc(-c3ccncc3C)cc2)c(O)n1[C@@H](CC)c1cccc(C#N)c1 [Example 98, 3-[(1S)-1-(2-butyl-6-hydroxy-5-{[4-(3-methylpyridin-4-yl)phenyl]methyl}-4-oxo-1,4-dihydropyrimidin-1-yl)propyl]benzonitrile]
CCCCc1nc(=O)c(Cc2ccc(-c3ccnc(F)c3C)cc2)c(O)n1[C@@H](CC)c1cccc(C#N)c1 [Example 99, 3-[(1S)-1-(2-butyl-5-{[4-(2-fluoro-3-methylpyridin-4-yl)phenyl]methyl}-6-hydroxy-4-oxo-1,4-dihydropyrimidin-1-yl)propyl]benzonitrile]
CCCCc1nc(=O)c(Cc2ccc(-n3cc(Cl)ccc3=O)cc2)c(O)n1[C@@H](CC)c1cccc(C#N)c1 [Example 100, 3-[(1S)-1-(2-butyl-5-{[4-(5-chloro-2-oxo-1,2-dihydropyridin-1-yl)phenyl]methyl}-6-hydroxy-4-oxo-1-4-dihydropyrimidin-1-yl)propyl]benzonitrile]

EC50, 100 to 300 nM:
CCc1cccc(CC)c1-n1c(-c2ccn(CC(C)C)n2)nc(=O)c(Cc2ccc(-c3cccn(C)c3=O)c(F)c2)c1O [Example 90, 1-(2,6-diethylphenyl)-5-{[3-fluoro-4-(1-methyl-2-oxo-1,2-dihydropyridin-3-yl)phenyl]methyl}-6-hydroxy-2-[1-(2-methylpropyl)-1H-pyrazol-3-yl]-1,4-dihydropyrimidin-4-one]
CCc1cccc(CC)c1-n1c(-c2ccn(CC(C)C)n2)nc(=O)c(Cc2ccc(-c3ccnc(F)c3C)c(F)c2)c1O [Example 91, 1-(2,6-diethylphenyl)-5-{[3-fluoro-4-(2-fluoro-3-methylpyridin-4-yl)phenyl]methyl}-6-hydroxy-2-[1-(2-methylpropyl)-1H-pyrazol-3-yl]-1,4-dihydropyrimidin-4-one]

EC50, 10 to 100 nM:
CCc1cccc(CC)c1-n1c(-c2ccn(CC(C)C)n2)nc(=O)c(Cc2ccc(-c3ccc(F)cc3C(N)=O)c(F)c2)c1O [Example 92, 4′-{[1-(2,6-diethylphenyl)-6-hydroxy-2-[1-(2-methylpropyl)-1H-pyrazol-3-yl]-4-oxo-1,4-dihydropyrimidin-5-yl]methyl}-2′,4-difluoro-[1,1′-biphenyl]-2-carboxamide]

Same assay, conditions: HEK293 cells stably expressing human APJ receptor; inhibition of forskolin-mediated cAMP production; read-out: Human APJ cAMP EC50 potency range

EC50, 0.01 to 10 nM:
CCCCc1nc(=O)c(Cc2ccc(-c3ccc(F)nc3C)cc2)c(O)n1[C@@H](CC)c1cccc(C#N)c1 [Example 95, (S)-3-(1-(2-butyl-5-(4-(6-fluoro-2-methylpyridin-3-yl)benzyl)-6-hydroxy-4-oxopyrimidin-1(4H)-yl)propyl)benzonitrile]
